Laboratory results from US12036194B1, “Methods of administering solriamfetol to lactating women” (Axsome Malta Ltd., priority 2022, dated 2024).
Structures can show the parent of a compound that is named as a salt. Where two headings read alike, the source gives them in different places.

Test: Phase 4 open-label single-dose study: pharmacokinetics of solriamfetol in breast milk of healthy postpartum women
Format: in vivo, human
Details: for Kp / AUC(0-inf) / AUC(0-t) / Cmax / half-life / Tmax: female, human, po, 150 mg; for Kp: breast milk / plasma
Protocol: A Phase 4, open-label, single-dose study to evaluate the pharmacokinetics (PK) of solriamfetol in the breast milk and plasma of healthy postpartum women following oral administration of a 150 mg solriamfetol tablet.
The study was conducted in 6 healthy adult lactating women who were between 15 and 37 weeks postpartum and were administered a single oral dose of SUNOSI 150 mg. SUNOSI was excreted in breast milk with a milk to plasma AUC ratio of approximately 2:1. […] The average amount that would be passed to the infant was estimated to be 0.59 mg over 24 hours, which is about 4.0% of the maternal dose on a weight-adjusted basis. The data from the lactation study indicate that SUNOSI is transferred to breastmilk in nursing mothers, with the relative infant dose (RID) is approximately 4% of the maternal weight-adjusted dosage. Data to assess the effects of SUNOSI on a breastfed infant or on milk production is not provided. The developmental and health benefits of breastfeeding should be considered along with the mother's clinical need for SUNOSI and any potential adverse effects on the breastfed child from SUNOSI or from the underlying maternal condition. Breastfed infants should be monitored for adverse reactions, such as agitation, insomnia, anorexia, and reduced weight gain.
On Day −1, eligible subjects underwent the baseline procedures. On Day 1, 2 hours after a light breakfast, subjects were to receive a single dose of solriamfetol 150 mg with 240 mL of water. Subjects had to fast for approximately 4 hours after the first dose; water was allowed except for 1 hour before and 1 hour after dosing with the study drug.
Pharmacokinetic analysis of breast milk obtained from both breasts (by pumping) was evaluated prior to dose administration and at intervals up to 72 hours postdose. Blood samples were also collected for plasma solriamfetol quantitation and PK analysis predose and at timepoints up to 72 hours postdose. Solriamfetol breast milk and plasma concentrations were measured using validated bioanalytical methods. Safety was assessed throughout the study by 12-lead ECG, vital sign measurements, the Columbia-Suicide Severity Rating Scale (C-SSRS), and the incidence of adverse events (AE).
Breast milk collection: Solriamfetol concentration in breast milk and plasma was evaluated based on samples collected prior to and postdose on Days 1 to 4. Breast milk was collected from both breasts, using electronic breast pumps, during the following intervals: From −2 to 0 at predose and at 0 to 2, 2 to 4, 4 to 8, 8 to 12, 12 to 18, 18 to 24, 24 to 32, 32 to 40, 40 to 48, and 48 to 72 hours postdose on Day 1. The midpoint of each breast milk collection interval was used as the time variable.
Breast milk was collected as often as needed during the assigned intervals; however, at the end of each interval, breast milk was pumped from both breasts and collected. At the end of each collection interval, all milk expressed from both breasts during that interval was pooled. The milk was thoroughly mixed by gently inverting the collection vessel 10 times to ensure homogeneity in milk composition. The weight and volume of the collected milk during each interval was also recorded.
Serial blood samples (4 mL) were collected and dispensed into labeled K2EDTA tubes. The actual time of blood collection for all samples was recorded on the eCRF. Solriamfetol concentration in breast milk and plasma were determined using a validated bioanalytical method (LC-MS/MS) at Origin Bioanalytical Laboratory. The analytical range (lower limit of quantitation [LLOQ] to upper limit of quantitation) for plasma solriamfetol was 8.42 to 4210.00 ng/mL, and breast milk solriamfetol was 10.0 to 8000 ng/mL.
Pharmacokinetic parameters were derived with Phoenix® WinNonlin® Version 8.3 (Certara, Inc., Princeton, New Jersey, USA) and/or SAS© Version 9.4 (SAS Institute, Inc., Cary, North Carolina, USA). […]

[1] = breast milk, single oral 150 mg solriamfetol tablet, N = 6, hydrochloride
[2] = breast milk, single oral 150 mg, N = 6
[3] = breast milk, single oral 150 mg, N = 6, hydrochloride
[4] = breast milk, single oral 150 mg, N = 6, listed as solriamfetol, hydrochloride
[5] = over 72 hours, single oral 150 mg

NC(=O)OC[C@H](N)Cc1ccccc1 [Solriamfetol, (R)-2-amino-3-phenylpropyl carbamate (APC) hydrochloride]
Milk:Plasma Ratio, Arithmetic Mean (CV %) (AUC in breast milk divided by AUC in plasma, single oral 150 mg, N = 6): 2.136 (35.8)
time by which near complete excretion in breast milk was observed (after dosing, single oral 150 mg): ≤ 24 h
Amilk, Geometric Mean (amount excreted in breast milk over 72 hours, single oral 150 mg, N = 6): 0.5651 mg
Amilk, Arithmetic Mean (CV %) (amount excreted in breast milk over 72 hours, single oral 150 mg, N = 6, hydrochloride): 0.6880 (67.9) mg
Amilk, Arithmetic Mean (CV %) (amount excreted in breast milk over 72 hours, single oral 150 mg, N = 6, listed as solriamfetol, hydrochloride): 0.6880 mg
Lambda_z, Arithmetic Mean (CV %) (breast milk, single oral 150 mg solriamfetol tablet, N = 6): 0.1446 (18.8) 1/h
t1/2, Arithmetic Mean (CV %) [1]: 4.954 (21.4) h
tmax, Median (min, max) [1]: 1.12 h
Daily Infant Dose, Geometric Mean [2]: 0.5856 mg
Relative Infant Dose, Geometric Mean [2]: 4.030%
Daily Infant Dose, Arithmetic Mean (CV %) [3]: 0.6927 (63.5) mg
Relative Infant Dose, Arithmetic Mean (CV %) [3]: 4.602 (60.6) %
Daily Infant Dose, Arithmetic Mean (CV %) [4]: 0.6927 mg
Relative Infant Dose, Arithmetic Mean (CV %) [4]: 4.602%
average amount that would be passed to the infant (estimated, over 24 hours, single oral 150 mg): 0.59 mg
share of the total amount excreted in breast milk over 72 hours (excreted by 8 hours): approximately 78%
share of the total amount excreted in breast milk over 72 hours (excreted by 24 hours): ~98%
Kp (AUC in breast milk divided by AUC in plasma, single oral 150 mg, N = 6, read-out: Milk:Plasma Ratio, Geometric Mean): 2.05
Kp (breast milk vs plasma, single oral 150 mg, read-out: solriamfetol exposure/concentrations (Cmax, AUCs) in breast milk relative to plasma): ~2
AUC(0-inf) (breast milk, breast milk, single oral 150 mg solriamfetol tablet, N = 6, read-out: AUC0-inf, Geometric Mean): 12900 ng·h/mL
AUC(0-t) (breast milk, breast milk, single oral 150 mg solriamfetol tablet, N = 6, read-out: AUC0-t, Arithmetic Mean (CV %)): 13700 ng·h/mL
AUC(0-t) (breast milk, breast milk, single oral 150 mg solriamfetol tablet, N = 6, read-out: AUC0-t, Geometric Mean): 12800 ng·h/mL
Cmax (breast milk, breast milk, single oral 150 mg solriamfetol tablet, N = 6, read-out: Cmax, Arithmetic Mean (CV %)): 2070 ng/mL
Cmax (breast milk, breast milk, single oral 150 mg solriamfetol tablet, N = 6, read-out: Cmax, Geometric Mean): 1860 ng/mL
half-life (breast milk, breast milk, single oral 150 mg solriamfetol tablet, N = 6, read-out: t1/2, Arithmetic Mean (CV %) (converted)): ~5 h
half-life (breast milk, breast milk, single oral 150 mg solriamfetol tablet, N = 6, read-out: t1/2, Geometric Mean (converted)): 4.87 h
Tmax (breast milk, breast milk, single oral 150 mg solriamfetol tablet, N = 6, read-out: tmax, Median (min, max)): ~1.1 h
AUC(0-inf) (breast milk, breast milk, single oral 150 mg solriamfetol tablet, healthy postpartum women N = 6, read-out: AUC0-inf, Arithmetic Mean (CV %)): 13800 ng·h/mL
half-life (breast milk, breast milk, single oral 150 mg, read-out: t1/2 (approximate) (converted)): ~5 h
Tmax (breast milk, breast milk, single oral 150 mg, read-out: tmax range): 1 to 3 h
daily infant dose (further analysis, based on nominal infant weight of 6 kg, maternal single oral 150 mg): 0.112 mg/kg
Arithmetic mean±SD amount excreted in breast milk [5]: 0.6880 ± 0.4672 mg
cumulative median amount excreted in breast milk [5]: 0.67 mg
